Results on 2 compounds are retold here after US20080146495A1, “Methods for Treating Hiv by Inhibiting Cd4 Down-Modulation” (The Regents of the University of California, priority 2005, published 2008).

What all share (assay type): cell-based
The test system of assay [1] is HIV-1.
The subject of assay [2] is HIV-1 R9.
Assay [3] relates to CXCR4-tropic R9 HIV-1 strain. Nature of the assay: Viral replication assay in transduced Jurkat Low-CD4 cells (p24 accumulation).
Assay [4] relates to HIV-1 (R9). Nature of the assay: HIV-induced CD4 down-modulation in transduced CD4-positive cell lines (SupT1, C8166, MAGIC5B).
Assay [5] deals with HIV-1 Env (gp160, gp120, gp41).
Assay [6] has as its system HIV-1 (R9). Put plainly: Infectivity in MAGIC5 cells of particles released from transduced SupT1, C8166 and MAGIC5B cells. The following applies: three cell types (SupT1, C8166, MAGIC5B); compared to control GFP vectors. The procedure: Infectivity assays were performed with MAGIC-5 cells using equal amounts of input virus (measured as ng p24 protein) in the presence of 20 μg/ml DEAE dextran. Infection was allowed for 48 hours. Routinely, after 8 hrs of infection, 1 μM AZT was added to block second rounds of virus replication. Infected cells were scored after staining for beta-galactosidase with X-Gal.
Truncated receptor provided to a cell via one of the above-described vectors negatively interferes with HIV-induced down-regulation of endogenous CD4 receptor. […] Though any suitable cell line could be used, the three chosen were: SupT1, C8166, and MAGIC5B. These were selected because they express high levels of viral receptor, as shown in the bottom panel of FIG. 7. Transduction efficiencies with GFP control vectors were higher than 90% in all cell lines, as estimated by flow cytometry. Infection of mock-transduced cells with HIV-1 led to efficient down-modulation of CD4. […] In these cultures, a population of low-CD4/p24-positive infected cells that had undergone receptor down-modulation emerged. […] The infectivity of viral particles released from the cells was determined as with respect to FIG. 5, above.

Assay [7] relates to HIV-1 Nef (NA7) fused to GFP. The following applies: 293T cells transduced with pHR'-CMV vectors, transfected with Nef (NA7)-GFP.
The test system of assay [8] is HIV-1 (R9). Nature of the assay: Surface CD4 down-modulation in transduced PBMC infected with HIV-1 (flow cytometry).
[9] abbreviates: virions purified through sucrose cushions.

In the case of `Cc1cn([C@H]2C[C@H](N=[N+]=[N-])[C@@H](CO)O2)c(=O)[nH]c1=O` [AZT, reference compound], the “extent of inhibition of infectivity relative to that by CD4Δcyt expression” value in assay [1] (1 μM added to target MAGIC5 cells) is “comparable”.
On to CD4Δcyt, for which, in assay [2], the “amount on the surface of infected cells, mean values” is 2857; the “down-modulation of surface receptor by HIV-1 (VSV)” value is “completely resistant to down-modulation”; the “surface levels in HIV-1 infected cells, higher than in infected cells transduced with wild-type CD4” value was found to be 11 fold. Also, the “HIV-1 replication (p24 accumulation in cultures)” value in assay [3] (Jurkat Low-CD4 cells, HIV-1 R9) is listed as “complete abrogation of HIV-1 replication”. Also, in assay [3] (after more than 60 days, two independent experiments, Jurkat Low-CD4 cells exposed to HIV-1), the revertant viruses result is “not detected”. Besides, in assay [4] (SupT1, C8166, MAGIC5B cells), the “surface CD4 levels in infected cells, higher than in mock-infected cells” value was 3- to 4 fold. Further, the “receptor down-modulation after HIV-1 infection of transduced CD4-positive cells” value in assay [4] (SupT1, C8166, MAGIC5B cells, 48 h after infection) is given as “failed to down-modulate the receptor”. In assay [4] (cultures of SupT1 and C8166 cells), the “p24-positive cells with low levels of CD4 receptor” value is “no longer observed”. Moreover, the “gp160 envelope precursor in producer cell lysates (anti-gp120 western blot)” value in assay [5] (total cell lysates of 293T producer cells) is “accumulation of a 160 kDa protein band”. Also, the “steady-state levels of gp41 in producer cells” value in assay [5] (transduced 293T cells) is “reduction in the steady-state levels of gp41”. Also, in assay [5] (setting [9]), the “gp41 incorporation in membranes from virions” value was “Reductions in gp41 incorporation” and the “gp120 incorporation into / exclusion from virions” value was “more severe”. Further, the “infectivity of viral particles released from transduced cells” value in assay [6] is “largely diminished infectivity”. Further, in assay [1], the “extent of inhibition in single-round infectivity assays” value is “greater than 99%”, the “reduced infectivity of viral progeny” value is 100 fold and the “reduction of infectivity of HIV-1” value is on record as “more than 1000 fold”. For the same compound, in assay [7], the “effect of Nef-GFP expression on surface expression of the CD4 variant” value is listed as “did not alter the expression”. Besides, the “reduction in CD4 down-modulation compared to cells transduced with full-length receptor” value in assay [8] (PBMC infected with HIV-1) is “more than 10 fold”. Further, the “numbers of low-CD4/GFP-positive cells after HIV-1 infection” value in assay [8] (PBMC transduced to similar levels with pWPI vector) is reported as “reduced numbers of low-CD4/GFP-positive cells”.
